Earlier results in publication PMC7343746, “(2S, 4R)-4-[^18F]Fluoroglutamine for In vivo PET Imaging of Glioma Xenografts in Mice: an Evaluation of Multiple Pharmacokinetic Models” (Molecular Imaging and Biology, 2020).

System: alanine aminotransferase
Set-up: method as in PMID 22613816
Details: cited from earlier work

In the case of `N[C@@H](C[C@@H]([18F])C(=O)O)C(=O)O` [(2S, 4R)-4-[^18F]fluoroglutamate], the “Efficiency of processing and defluorination versus non-fluorinated natural counterpart” value is given as 5.6 times.
